Data taken from patent publication US20110203018A1, “Use of Carboxamides on Cultivated Plants” (BASF SE, priority 2008, published 2011).

Tests used:
[1] = test system: soybeans; assay: Field trial: soybean grain yield and thousand grain weight (TGW); format: in vivo; settings: for Grain Yield (dt/ha) / TGW: soybeans, field, EC; for Grain Yield (dt/ha): Control 16.6; for TGW: Control 113.9
[2] = test system: common rust (Puccinia sorghi); assay: Field trial: efficacy against common rust in maize (infected leaf area); format: in vivo
Text: The variety DKB 390 was planted at a seeding rate of 60,000 plants per ha. Row spacing was 80 cm. Plot size was 30 m^2.

[3] = test system: maize; assay: Field trial: green leaf retention in maize (green leaf area); format: in vivo
Text: The variety DKB 390 was planted at a seeding rate of 60,000 plants per ha. Row spacing was 80 cm. Plot size was 30 m^2. […] Green leaf retention was estimated in treated and control plants by estimating the green leaf area 28 days after treatment in 10 randomly chosen plants per plot.

[4] = test system: maize; assay: Field trial: maize grain yield and thousand grain weight (TGW); format: in vivo
Description: The variety DKB 390 was planted at a seeding rate of 60,000 plants per ha. Row spacing was 80 cm. Plot size was 30 m^2. […] At maturity, the plants were harvested and the grain yield and thousand grain weight (TGW) were measured (Tab. 2).

[5] = test system: Rhizoctonia solani; assay: Field trial: efficacy against Rhizoctonia solani in rice (infected leaf area, frequency of infection); format: in vivo
Description: Imidazolinone tolerant rice ([…]) was grown in 2008 at Washington, 7033 Highway 103, LA, USA. […] Row spacing was 18 cm. Plot size was 27.5 m^2. […] Infection with Rhizoctonia solani 77 days after treatment with COMPOUND 2 was assessed (Tab. 3) by estimating the infected leaf area and frequency of infection in 10 randomly chosen plants per plot.

[6] = test system: rice; assay: Field trial: rice grain yield; format: in vivo
Description: Imidazolinone tolerant rice ([…]) was grown in 2008 at Washington, 7033 Highway 103, LA, USA. […] Row spacing was 18 cm. Plot size was 27.5 m^2. […] At maturity, the plants were harvested and the grain yield was measured (Tab. 3).

[7] = test system: Asian Soybean Rust (Phakopsora pachyrhizi); assay: Field trial: efficacy against Asian Soybean Rust in soybeans (infected leaf area); settings: for Efficacy against soybean rust (%): soybeans, field, EC, assessed 20 days after last treatment, infection in Control 95% infected leaf area
[8] = test system: Leptosphaeria maculans; assay: Field trial: Leptosphaeria maculans in oilseed rape (stem scoring, disease index); format: in vivo
[9] = test system: oilseed rape; assay: Field trial: oilseed rape grain yield; format: in vivo
Description: Oilseed rape was grown in 2002 at the Verde in France. The variety Colosse was planted at a seeding rate of 3 kg/ha. Row spacing was 17 cm. Plot size was 30 m^2. […] The formulation was diluted in a total spray volume of 300 l/ha.
At maturity, the plants were harvested and the grain yield was measured (Tab. 4).

[10] = 30 g AI/ha applied twice (BBCH 55/61 and 65/71)
[11] = 50 g AI/ha applied twice (application time BBCH 19)
[12] = herbicide tolerant oilseed rape variety

Cn1cc(C(=O)Nc2ccccc2-c2cc(F)c(F)c(F)c2)c(C(F)F)n1 [COMPOUND 2, N-(3′,4′,5′-trifluorobiphenyl-2-yl)-3-difluoromethyl-1-methyl-1H-pyrazole-4-carboxamide]
grain weight of harvested grain versus the untreated ([1]; soybean field trial): increased
grain yield compared to the untreated control ([1]; soybean field trial): increase
Grain Yield (dt/ha) [1, 10]: 21.6 dt/ha
TGW [1, 10]: 143.5 g
Grain Yield (dt/ha) [1, 11]: 22.9 dt/ha
TGW [1, 11]: 144.1 g
grain yield, combination of treatment with transgenic variety ([1]; transgenic soybean variety): synergistic effects
increase in grain yield and in grain weight versus expected from single effects ([1]; transgenic soybean variety): much bigger
Efficacy against rust (%) ([2]; maize DKB 390, field, 50 g/ha, EC, BBCH 51/55, 28 days after treatment, infection in Control 8.8% infected leaf area): 88.6%
activity against common rust in maize ([2]; maize field trial, EC 62.5 g/l, 0.8 l/ha, once, 28 days after treatment): good activity
activity against common rust versus expected from single effects ([2]; transgenic glyphosate tolerant and/or insect resistant maize varieties): increased
disease control, combination of treatment with transgenic variety ([2]; transgenic maize variety): synergistic effects
Green Leaf Area (%) ([3]; maize DKB 390, field, 50 g/ha, EC, BBCH 51/55, 28 days after treatment, Control 34): 40%
green leaf area compared to control plants ([3]; maize field trial, 28 days after treatment): increase
increase in green leaf tissue versus expected from combination of effects ([3]; transgenic maize plants): bigger
Grain Yield (dt/ha) ([4]; maize DKB 390, field, 50 g/ha, EC, BBCH 51/55, Control 49.2): 55.2 dt/ha
TGW ([4]; maize DKB 390, field, 50 g/ha, EC, BBCH 51/55, Control 325): 333 g
grain weight of harvested grain over the untreated control ([4]; maize field trial): increased
grain yield compared to the untreated control ([4]; maize field trial): increase
grain yield, combination of treatment with transgenic variety ([4]; transgenic maize variety): synergistic effects
increase in grain yield and in grain weight versus expected from single effects ([4]; transgenic maize variety): much bigger
disease control, combination of treatment with Imidazolinone tolerance trait ([5]; CL 161 rice): synergistic effects
Efficacy against Rhizctonia (%) Frequency ([5]; Imidazolinone tolerant rice CL 161, field, 50 g/ha, EC, BBCH 32/34, 77 days after treatment): 45.6%
Efficacy against Rhizctonia (%) Infection ([5]; Imidazolinone tolerant rice CL 161, field, 50 g/ha, EC, BBCH 32/34, 77 days after treatment, infection in Control 8% infected leaf area): 50%
activity against Rhizoctonia compared with a variety without the herbicide tolerance trait ([5]; Imidazolinone tolerant rice variety (CL 161)): higher
activity against Rhizoctonia in rice ([5]; rice field trial, EC 62.5 g/l, 0.8 l/ha, once, 77 days after treatment): active
grain yield, combination of treatment with Imidazolinone tolerance trait ([6]; CL 161 rice): synergistic effects
increase in grain yield compared with a conventional variety ([6]; Clearfield variety (CL 161)): bigger
Grain Yield (dt/ha) ([6]; Imidazolinone tolerant rice CL 161, field, 50 g/ha, EC, BBCH 32/34, Control 37.76): 54.28 dt/ha
grain yield compared to the untreated control ([6]; rice field trial): increase
activity against Asian Soybean Rust ([7]; soybean field trial, EC 62.5 g/l, 0.48 l/ha and 0.8 l/ha, applied twice, 20 days after last treatment): good activity
Efficacy against soybean rust (%) [7, 10]: 34%
Efficacy against soybean rust (%) [7, 11]: 46%
activity against Asian Soybean Rust versus expected from single effects ([7]; transgenic glyphosate tolerant soybean variety): increased
disease control, combination of treatment with transgenic variety ([7]; transgenic soybean variety): synergistic effects

O=C(Nc1ccccc1-c1ccc(Cl)cc1)c1cccnc1Cl [BOSCALID, boscalid]
activity against Leptosphaeria maculans versus expected from combination of effects ([8]; herbicide tolerant (imidazolinone resistance) oilseed rape variety): increased
disease control, combination of treatment with herbicide tolerant variety [8, 12]: synergistic effects
LEPTMA disease index ([8]; oilseed rape Colosse, field, 50 g/ha, WG (Cantus), BBCH 16, 209 days after treatment, Control 3.17, infection rate in Control 49%): 1.71
activity against Leptosphaeria maculans in oilseed rape ([8]; oilseed rape field trial, Cantus WG 500 g/kg, 0.5 kg/ha, once, 209 days after treatment): good activity
grain yield, combination of treatment with herbicide tolerant variety [9, 12]: synergistic effects
increase in grain yield versus expected from single effects [9, 12]: bigger
Grain Yield (dt/ha) ([9]; oilseed rape Colosse, field, 50 g/ha, WG (Cantus), BBCH 16, Control 33.9): 49.3 dt/ha
grain yield compared to the untreated control ([9]; oilseed rape field trial): increase
